Data published in US5114843A, “Humoral hypercalcemic factor antagonists” (Merck & Co., Inc., priority 1991, dated 1992).

Target: T1, Bovine renal cortical plasma membranes (Bos taurus, UniProt Q1LZF7)
T1 construct: from tissue; host or cells: bovine renal cortex plasma membranes
T1 sequence (Q1LZF7 29-589): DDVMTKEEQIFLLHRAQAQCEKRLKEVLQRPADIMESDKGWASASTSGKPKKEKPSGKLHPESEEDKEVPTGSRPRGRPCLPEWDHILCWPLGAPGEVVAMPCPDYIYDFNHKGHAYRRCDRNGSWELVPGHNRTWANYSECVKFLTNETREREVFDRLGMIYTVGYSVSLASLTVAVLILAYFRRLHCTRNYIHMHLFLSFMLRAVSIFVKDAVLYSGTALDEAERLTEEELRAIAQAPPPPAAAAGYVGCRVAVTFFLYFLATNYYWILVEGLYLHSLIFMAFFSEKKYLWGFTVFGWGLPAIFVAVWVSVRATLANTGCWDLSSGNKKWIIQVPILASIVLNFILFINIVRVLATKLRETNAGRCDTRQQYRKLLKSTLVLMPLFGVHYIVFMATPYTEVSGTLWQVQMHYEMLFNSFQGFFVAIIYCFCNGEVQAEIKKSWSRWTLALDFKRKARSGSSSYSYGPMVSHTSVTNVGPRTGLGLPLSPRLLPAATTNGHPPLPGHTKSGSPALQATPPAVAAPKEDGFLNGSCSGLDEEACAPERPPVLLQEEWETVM
Assay: HCF binding (receptor) assay with [Nle8,18,(125I)-Tyr34]bPTH(1-34)NH2 radioligand
Details: radioligand [Nle8,18,(125I)-Tyr34]bPTH(1-34)NH2, 30 min at 21° C
Procedure: HCF analogues were analysed in a new receptor assay (Goldman et al., Endocrinol. (1988) 123: 1468-1475) which modified the assay reported in Rosenblatt et al., Endocrin. 107: 545-550 (1980). The binding assay used [Nle^8,18 (^125 I)-Tyr^34 ]bPTH (1-34)NH2 which was purified by HPLC (Novapak C18, 32-35% CH3 CN in 0.1% TFA) and was stored as aliquots in 25 mM TrisHCl/1%BSA at -70° C. Bovine renal cortical plasma membranes were incubated with radioligand (25,000 cpm) in the absence or presence of HCF analogues in a Tris-containing buffer (250 μl) for 30 min. at 21° C. Once equilibrium was reached, bound and free radioligand were separated by centrifugation.
High specific binding (85%) to bovine renal cortical membranes was obtained consistently.

Question: With `CC[C@H](C)[C@H](NC(=O)[C@H](CC(C)C)NC(=O)[C@H](Cc1c[nH]cn1)NC(=O)[C@H](Cc1c[nH]cn1)NC(=O)[C@H](CC(C)C)NC(=O)[C@H](Cc1ccccc1)NC(=O)[C@H](Cc1ccccc1)NC(=O)[C@H](CCCNC(=N)N)NC(=O)[C@H](CCCNC(=N)N)NC(=O)[C@H](CCCNC(=N)N)NC(=O)[C@H](CC(C)C)NC(=O)[C@H](CC(=O)O)NC(=O)[C@H](CCC(N)=O)NC(=O)[C@@H](NC(=O)[C@@H](N)CO)[C@@H](C)CC)C(=O)N[C@@H](C)C(=O)N[C@@H](CCC(=O)O)C(=O)N[C@H](C(=O)N[C@@H](Cc1c[nH]cn1)C(=O)N[C@H](C(=O)N[C@@H](C)C(N)=O)[C@@H](C)O)[C@@H](C)CC` [hHCF(14-34)NH2] as the compound, how does the Ki read?
Answer: Its Ki is 1.4 ± 0.083 µM.
